Test results published in PMC3433420 (PLoS ONE, 2012).
Read-outs that look alike come from different tables or passages of the source.

Assays:
GRB7 SH2 domain [1] = molecular target: T1, GRB7 SH2 domain (Homo sapiens, UniProt Q14451); parameters: 6X His; thioredoxin; made in house; host or cells: E. coli BL21(DE3)pLysS; settings: previous protein microarray data, Figure S5; cited from earlier work
SH2 and PTB domains = settings: original PM interactions, ref Jones et al. 2006 / Kaushansky et al. Chem and Biol 2008, cited from earlier work
Text: Supplement pone.0044471.s022.xlsx, sheet "Most recent PM interactions" | column: Kd || Supplement pone.0044471.s022.xlsx, sheet "All original PM interactions" | column: Kd

GRB7 SH2 domain [2] = molecular target: T1, GRB7 SH2 domain; test: FP saturation binding assay; settings: peptides queried on both FP and PM platforms

T1 sequence (Q14451 431-527 limits assumed): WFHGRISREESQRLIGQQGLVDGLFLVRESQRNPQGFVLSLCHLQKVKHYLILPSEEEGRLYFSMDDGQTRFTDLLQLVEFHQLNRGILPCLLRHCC

In the case of FDNLpYYWDQDPPEd [ErbB2 pY1221], the “interaction with GRB7 on the PM platform” value (GRB7 SH2 domain [1]) is given as “only displayed interactions with GRB7 from the PM platform”, the Kd (SH2 and PTB domains; Protein ABL2) is given as 0.5 µM and the Kd (SH2 and PTB domains; Protein BLK) is given as 1.2 µM. The Kd (SH2 and PTB domains; Protein BLNK) was 1.56 µM, the Kd (SH2 and PTB domains; Protein BMX) was 2 µM and the Kd (SH2 and PTB domains; Protein FGR) was 2 µM. The Kd (SH2 and PTB domains; Protein GRB10) was 0.12 µM, the Kd (SH2 and PTB domains; Protein GRB14) was 1.4 µM and the Kd (SH2 and PTB domains; Protein ITK) was 1.52 µM. The Kd (SH2 and PTB domains; Protein LYN) was 0.93 µM, the Kd (SH2 and PTB domains; Protein PIK3R1-C) was 2 µM and the Kd (SH2 and PTB domains; Protein PIK3R1-NC) was 1.16 µM. For the same substance, the Kd (SH2 and PTB domains; Protein PIK3R2-N) was 0.95 µM, the Kd (SH2 and PTB domains; Protein PIK3R2-NC) was 2 µM and the Kd (SH2 and PTB domains; Protein PIK3R3-C) was 1.91 µM. The Kd (SH2 and PTB domains; Protein PIK3R3-N) was 2 µM, the Kd (SH2 and PTB domains; Protein PIK3R3-NC) was 2 µM and the Kd (SH2 and PTB domains; Protein PLCG1-C) was 2 µM. The Kd (SH2 and PTB domains; Protein PLCG1-N) was 1.93 µM, the Kd (SH2 and PTB domains; Protein PLCG1-NC) was 1.96 µM and the Kd (SH2 and PTB domains; Protein PLCG2-N) was 2 µM. The Kd (SH2 and PTB domains; Protein PLCG2-NC) was 2 µM, the Kd (SH2 and PTB domains; Protein PTPN11-N) was 2 µM and the Kd (SH2 and PTB domains; Protein RASA1-N) was 0.37 µM. The Kd (SH2 and PTB domains; Protein RASA1-NC) was 0.9 µM, the Kd (SH2 and PTB domains; Protein SH2D3A) was 1.28 µM and the Kd (SH2 and PTB domains; Protein SH2D3C) was 0.16 µM. The Kd (SH2 and PTB domains; Protein SH3BP2) was 2 µM, the Kd (SH2 and PTB domains; Protein SHB) was 0.21 µM and the Kd (SH2 and PTB domains; Protein SHC1-PTB) was 0.17 µM. For the same substance, the Kd (SH2 and PTB domains; Protein SHC2-PTB) was 0.43 µM, the Kd (SH2 and PTB domains; Protein SHD) was 2 µM and the Kd (SH2 and PTB domains; Protein SHF) was 0.34 µM. For the same substance, the Kd (SH2 and PTB domains; Protein SLA2) was 1.44 µM, the Kd (SH2 and PTB domains; Protein SLA) was 1.07 µM and the Kd (SH2 and PTB domains; Protein SOCS1) was 1.23 µM. The Kd (SH2 and PTB domains; Protein SRC) was 0.035 µM, the Kd (SH2 and PTB domains; Protein SUPT6H) was 1.57 µM and the Kd (SH2 and PTB domains; Protein SYK-C) was 2 µM. For the same substance, the Kd (SH2 and PTB domains; Protein SYK-N) was 0.26 µM, the Kd (SH2 and PTB domains; Protein SYK-NC) was 0.41 µM and the Kd (SH2 and PTB domains; Protein TEC) was 0.77 µM. The Kd (SH2 and PTB domains; Protein TXK) was 1.23 µM, the Kd (SH2 and PTB domains; Protein VAV2) was 1.75 µM and the Kd (SH2 and PTB domains; Protein VAV3) was 1.65 µM. The Kd (SH2 and PTB domains; Protein YES1) was 0.045 µM, the Kd (SH2 and PTB domains; Protein ZAP70-NC) was 1.44 µM and the “interaction with GRB7 on the FP platform” value (GRB7 SH2 domain [2]) was “only displayed interactions with GRB7 from the PM platform”.
